Literature values in patent US20110171184A1, “Method for Introducing a Pna Molecule Conjugated to a Positively Charged Peptide into the Cytosol and/or the Nucleus by Photochemical Internalisation (Pci)” (PCI Biotech AS, priority 2004, published 2011).
Ends that are not written are not given here.

Tested on: cells
Conditions: 10 μM, after 24 hours, no PCI

scrambled NLS sequence (SEQ ID NO:4 KKVKPKR) conjugated to PNA: PNA conjugated to scrambled NLS sequence KKVKPKR (Cutrona et al.) (also: conjugated to PNA)
presence of PNA in the nucleus: only minimal amounts of PNA in the nucleus
